From paper PMC6934184, “Selective DNA-PKcs inhibition extends the therapeutic index of localized radiotherapy and chemotherapy” (The Journal of Clinical Investigation, 2019) come the findings set out here.

For orientation: inhibition means the drop in the measured response relative to a control, in per cent. A high value points to a response far below the control.

The test concerns the target T1, CDK7/cyclin H/MNAT1 (Homo sapiens, UniProt P50613).
T1 construct: purchased Thermo Fisher Scientific (Life Technologies) SelectScreen
Put plainly: SelectScreen Adapta. In kind it is biochemical. The essentials:
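SelectScreen broad panel; activity (Z'LYTE, Adapta) plus binding formats. ATP: Km app for CSF1R Z'LYTE; 10 for CAMK1 Adapta. Readout = % per kinase.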

T1 sequence (P50613 whole entry): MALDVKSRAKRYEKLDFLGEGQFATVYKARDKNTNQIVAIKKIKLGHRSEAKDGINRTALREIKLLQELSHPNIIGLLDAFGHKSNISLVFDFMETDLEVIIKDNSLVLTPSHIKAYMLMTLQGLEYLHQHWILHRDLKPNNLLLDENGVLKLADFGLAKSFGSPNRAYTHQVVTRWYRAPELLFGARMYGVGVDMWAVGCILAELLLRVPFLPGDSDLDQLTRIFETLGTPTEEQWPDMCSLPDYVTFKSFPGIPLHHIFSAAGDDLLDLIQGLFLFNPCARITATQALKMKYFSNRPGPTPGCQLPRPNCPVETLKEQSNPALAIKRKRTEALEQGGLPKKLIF
T1 sequence (P51946 whole entry partner): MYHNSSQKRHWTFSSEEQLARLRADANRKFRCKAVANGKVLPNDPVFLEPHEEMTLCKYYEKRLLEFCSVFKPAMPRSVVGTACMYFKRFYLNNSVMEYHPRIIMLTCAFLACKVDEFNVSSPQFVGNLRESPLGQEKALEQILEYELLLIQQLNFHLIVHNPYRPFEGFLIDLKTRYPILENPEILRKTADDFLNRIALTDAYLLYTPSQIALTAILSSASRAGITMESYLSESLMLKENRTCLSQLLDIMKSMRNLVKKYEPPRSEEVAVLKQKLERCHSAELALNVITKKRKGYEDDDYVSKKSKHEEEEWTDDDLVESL
T1 sequence (P51948 whole entry partner): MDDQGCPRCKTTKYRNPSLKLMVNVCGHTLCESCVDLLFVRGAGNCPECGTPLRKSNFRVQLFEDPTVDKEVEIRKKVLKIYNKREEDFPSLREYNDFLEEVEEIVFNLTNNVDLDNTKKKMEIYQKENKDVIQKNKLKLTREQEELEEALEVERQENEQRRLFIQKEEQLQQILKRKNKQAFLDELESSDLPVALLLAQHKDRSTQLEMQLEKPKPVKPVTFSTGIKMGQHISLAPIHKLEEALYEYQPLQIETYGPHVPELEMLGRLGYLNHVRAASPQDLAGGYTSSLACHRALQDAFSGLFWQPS

As for `CN(C(=O)CN1CCOCC1)c1ccc2sc3c(-c4cccc5c(=O)cc(N6CC7CCC(C6)O7)oc45)cccc3c2c1` [NU5455], 1 µM produced 5.3% inhibition.
